Reference: PMC7997574, “Lead Optimization of Benzoxazolone Carboxamides as Orally Bioavailable and CNS Penetrant Acid Ceramidase Inhibitors” (Journal of Medicinal Chemistry, 2020)
Values joined by “and” are separate entries in the source; they are usually repeats but may differ in a detail not shown here. Equal entries are not always repeated.

Key:
[1] = Maximum tolerated dose (MTD) study in C57BL/6 mice; type: in vivo, mouse; conditions: i.p. dose escalation 20, 40, 80, 120 mg kg^–1 over 4 days
Experimental: An MTD study was conducted on male C57BL/6 mice (15–19 g, 5 weeks old, SLAC Laboratory Animal Co. Ltd.). Animals were injected via intraperitoneal (i.p.) injection with single administration at 20 mg kg^–1 (N = 18, vehicle: 100% saline at 0.6 mg mL^–1) and multiple administrations for a duration of 4 days at 20 (N = 18, day 1), 40 (N = 18, day 2), 80 (N = 18, day 3), and 120 mg kg^–1 (N = 18, day 4). Clinical observations/samples of plasma, CSF, and brain were collected at 0.25, 0.5, 1, 4, 8, and 24 h. All procedures were performed in accordance with the Ethical Guidelines on the Protection of Animals Used for Scientific Purposes at the DMPK Group at Shanghai ChemPartner Co., Ltd.

AC [2] = molecular target: T1, AC (Homo sapiens, UniProt Q13510); assay: Fluorogenic hAC assay on hAC-enriched lysate of HEK293 cells; type: biochemical; set-up: expressed in transfected cells; conditions: hAC expressed in HEK-293 cells; read-out: hAC IC50 (μM)±SD
T1 sequence (Q13510 22-395): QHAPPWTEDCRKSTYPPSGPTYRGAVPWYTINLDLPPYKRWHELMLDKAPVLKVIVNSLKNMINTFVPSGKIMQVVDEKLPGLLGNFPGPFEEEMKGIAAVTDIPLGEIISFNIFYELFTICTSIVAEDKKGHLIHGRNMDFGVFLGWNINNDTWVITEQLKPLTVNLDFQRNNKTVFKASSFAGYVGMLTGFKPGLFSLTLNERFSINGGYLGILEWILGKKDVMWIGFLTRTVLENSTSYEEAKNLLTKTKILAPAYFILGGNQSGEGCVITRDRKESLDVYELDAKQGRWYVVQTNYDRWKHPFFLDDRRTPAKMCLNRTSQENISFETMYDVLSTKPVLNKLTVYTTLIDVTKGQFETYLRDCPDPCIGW
How it was run: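 Lysosome-enriched lysate (2 μg protein) from HEK293 cells stably expressing hAC, in 25 mM NaOAc pH 4.5. Pre-incubated 10 min with compound, then incubated 3 h at 37 °C with fluorogenic substrate Rbm14–12 (5 μM final, ~KM). Fluorescence (355/460 nm) read after NaIO4 development; IC50 by nonlinear regression, mean of ≥3 experiments.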

AC [3] = molecular target: T1, AC; assay: Kinetic studies on hAC-enriched lysates (Michaelis–Menten analysis, ki/KI); type: biochemical; set-up: expressed in transfected cells; conditions: time-dependent inhibition of hAC
Experimental: Assay conditions for the kinetic studies were the same as those described for the fluorogenic hAC assay. Enzyme-enriched lysate (2 μg) was incubated with the following concentrations of substrate Rbm14–12: 0.25, 0.5, 1, 2.5, 5, 10, 12.5, and 15 μM. Compound 22m was used at final concentrations of 100 and 400 nM. Initial velocities (V0) were determined and automatically fitted to the Michaelis–Menten equation to obtain the kinetic parameters (KM and Vmax). The graph is representative of two independent experiments, each performed in three technical replicates. Graphs and data analysis were performed using GraphPad Prism 5 software (GraphPad Software Inc., CA, USA).
hAC activity was measured as a function of reaction time in the presence of different concentrations of 22m. The apparent inactivation rate constant of hAC (kobs) was analyzed by nonlinear square fitting each data set to the pseudo-first-order rate equation Y = vi(1 – exp(−kobst))/kobs. Replotting of calculated kobs vs [22m] was made, and the kinetic parameter ki/KI was calculated by nonlinear square fitting data to the equation Y = kiI/(KI + I). The graphs are representative of two independent experiments, each performed in two technical replicates.

CC(C)CNC(=O)n1c(=O)oc2cc(C3CCN(C)CC3)ccc21 [22m, N-Isobutyl-6-(1-methyl-4-piperidyl)-2-oxo-1,3-benzoxazole-3-carboxamide]
clinical observations in MTD study [1]: no clinical abnormalities were observed
IC50 (AC [2]): 0.166 ± 0.089 µM
ki (AC [3]): 0.15 min^–1
ki/KI (AC [3]): 0.02 μM^–1 min^–1 and 0.02±0.001 μM^–1 min^–1
